These results are taken from PubChem BioAssay (NCI).

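Briefly, cells in 96-well plates were exposed to five compound concentrations for 48 h, and endpoints were estimated by linear interpolation. At the GI50, growth is halved. Definition used: TGI = concentration required for complete inhibition of growth.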 Where only a bound is given, the exact number is not on record here.

Test systems include KM20L2 colon; SW-620 colon; LXFL 529 NSCLC; SNB-19 CNS; MOLT-4 leukemia; HT29 colon; UO-31 renal; XF 498 CNS; HCT-15 colon; M19-MEL melanoma; DMS 114 small cell lung.
What all share (test): inhibition of tumour cell growth, NCI panel, 48 h

As to `C#Cc1cccc(NC(=O)/C=C\C(=O)O)c1`, the TGI in the assay with KM20L2 colon, in the assay with SW-620 colon, in the assay with LXFL 529 NSCLC, in the assay with SNB-19 CNS, with MOLT-4 leukemia and in the assay on HT29 colon was over 100 µM each time. This molecule also had a TGI in the assay with UO-31 renal of over 100 µM.
For `CC(C)(C)C1=NO[C@H]2[C@@H](NC(=O)c3ccccc3)CC[C@@H]12`, the TGI with XF 498 CNS, with HCT-15 colon, in the assay with M19-MEL melanoma, with DMS 114 small cell lung, in the assay with KM20L2 colon and in the assay on SW-620 colon was over 100 µM each time. Moreover, the TGI with LXFL 529 NSCLC, in the assay on SNB-19 CNS, with MOLT-4 leukemia, in the assay with HT29 colon and with UO-31 renal was over 100 µM each time.
`O=C1C2C(C(=O)N1Cc1ccccc1)N(Cc1ccccc1)C(=O)N2Cc1ccccc1` (configuration not stated): the TGI in the assay with XF 498 CNS, with HCT-15 colon, with M19-MEL melanoma, in the assay on DMS 114 small cell lung, with KM20L2 colon and in the assay on SW-620 colon was over 100 µM in each case. In addition, the TGI in the assay on LXFL 529 NSCLC, in the assay with SNB-19 CNS, with MOLT-4 leukemia, in the assay on HT29 colon and with UO-31 renal was over 100 µM throughout.
For `O=C(Nc1ccc(-n2cc(-c3ccncc3)c(-c3ccc(Cl)c(O)c3)n2)cc1)c1cc(C(F)(F)F)cc(C(F)(F)F)c1`, the GI50 with HCT-15 colon was 3.65 µM; in the assay with SW-620 colon, 5.4 µM; in the assay on SNB-19 CNS, 8.79 µM; in the assay on MOLT-4 leukemia it was 8.87 µM; with HT29 colon, 3.43 µM; in the assay on UO-31 renal, 2.8 µM. Besides, the TGI in the assay with HCT-15 colon was over 100 µM; with SW-620 colon, 35.6 µM; with SNB-19 CNS it was over 100 µM; in the assay on MOLT-4 leukemia it was over 100 µM; in the assay with HT29 colon it was 28.9 µM; in the assay with UO-31 renal, 13.5 µM.
In the case of `COc1cc([C@@H]2c3cc4c(cc3[C@H](SC(=N)N)[C@H]3COC(=O)[C@H]23)OCO4)cc(OC)c1OC`, the GI50 in the assay on HCT-15 colon is 0.321 µM; with SW-620 colon, 0.265 µM; with SNB-19 CNS, 0.449 µM; in the assay with MOLT-4 leukemia it was 0.382 µM; with HT29 colon, 0.217 µM; in the assay with UO-31 renal, 2.6 µM. For the same molecule, the TGI in the assay on HCT-15 colon was over 100 µM; in the assay with SW-620 colon, over 100 µM; in the assay on SNB-19 CNS, over 100 µM; in the assay on MOLT-4 leukemia, over 100 µM; with UO-31 renal, over 71.2 µM.
With `COc1ccc(N(CC(=O)O)N=O)cc1`, the TGI with HCT-15 colon, in the assay with SW-620 colon, with SNB-19 CNS, with MOLT-4 leukemia, with HT29 colon and in the assay with UO-31 renal was over 100 µM throughout.
For the molecule `Nc1nc(-c2ccccc2)c(CC(=O)O)s1`, the TGI in the assay with HCT-15 colon, with SW-620 colon, with SNB-19 CNS, in the assay on MOLT-4 leukemia, with HT29 colon and in the assay on UO-31 renal was over 100 µM throughout.
Regarding `OCc1ccc(-c2ccc(-c3ccc(CO)o3)o2)o1`, the GI50 in the assay with HCT-15 colon is over 100 µM; in the assay with SW-620 colon, over 100 µM; in the assay on SNB-19 CNS, over 90.8 µM; with MOLT-4 leukemia, over 100 µM; in the assay on HT29 colon, over 85.9 µM; in the assay with UO-31 renal, over 100 µM. For the same molecule, the TGI in the assay with HCT-15 colon, in the assay on SW-620 colon, in the assay with SNB-19 CNS, in the assay with MOLT-4 leukemia, in the assay with HT29 colon and in the assay on UO-31 renal was over 100 µM in each case.
With `O=C(CCCCN1CCN(CCCCC(=O)Nc2ccccc2C#C/C=C\C#Cc2ccccc2C(F)(F)F)CC1)Nc1ccccc1C#C/C=C\C#Cc1ccccc1C(F)(F)F`, the GI50 is 10.5 µM in the assay on HCT-15 colon; 9.39 µM in the assay with SW-620 colon; 11.7 µM in the assay with SNB-19 CNS; 8.55 µM in the assay on MOLT-4 leukemia; 7.11 µM with HT29 colon; 11.8 µM in the assay on UO-31 renal. The TGI came out at 23.8 µM in the assay on HCT-15 colon; 18.4 µM in the assay with SW-620 colon; 32.1 µM in the assay on SNB-19 CNS; 27 µM in the assay with MOLT-4 leukemia; 26.2 µM in the assay with HT29 colon; 48 µM in the assay with UO-31 renal.
`O=C1Nc2ccc(-c3cccnc3)cc2/C1=C/c1cc(Br)c(O)c(Br)c1`: the GI50 in the assay on HCT-15 colon was 6.8 µM; with SW-620 colon, 8.23 µM; in the assay with SNB-19 CNS, 9.11 µM; in the assay with MOLT-4 leukemia, 8.04 µM; in the assay on HT29 colon, 7.06 µM; in the assay on UO-31 renal, 6.54 µM. Also, the TGI in the assay on HCT-15 colon is over 25 µM; in the assay with SW-620 colon it was over 25 µM; with SNB-19 CNS, over 25 µM; in the assay on MOLT-4 leukemia, over 25 µM; in the assay with HT29 colon it was over 25 µM; with UO-31 renal, over 18.3 µM.
As to `Cc1ccc(-n2nc(C(OC3OC(CO)C(O)C(O)C3O)C(O)CO)c3nc4cc(C)c(C)cc4nc32)cc1` (configuration not stated), the TGI in the assay on XF 498 CNS, in the assay on HCT-15 colon, in the assay with M19-MEL melanoma, with DMS 114 small cell lung, with KM20L2 colon and in the assay with LXFL 529 NSCLC was over 100 µM in each case. Besides, the TGI in the assay with SNB-19 CNS, in the assay on MOLT-4 leukemia, in the assay on HT29 colon and in the assay with UO-31 renal was over 100 µM in each case.
Turning to `Cc1ccc(C(=O)Nc2ccc(Oc3cc4cnn(C)c4cc3-c3cn[nH]c3)c(F)c2)c(=O)n1-c1ccc(F)cc1`, the GI50 was 6.1 µM with HCT-15 colon; over 88.9 µM in the assay on SW-620 colon; over 100 µM in the assay with SNB-19 CNS; over 100 µM in the assay with MOLT-4 leukemia; 3.54 µM in the assay with HT29 colon; over 100 µM in the assay on UO-31 renal. The TGI with HCT-15 colon, with SW-620 colon, with SNB-19 CNS, with MOLT-4 leukemia, in the assay with HT29 colon and with UO-31 renal was over 100 µM in each case.
